Inhibition and Activity data for two molecules are collected here from ChEMBL document CHEMBL2331328, “Synthetic approaches to DNMT inhibitor SGI-1027 and effects on the U937 leukemia cell line” (Bioorg Med Chem Lett, 2013).

The target of assay [1] is DNA (cytosine-5)-methyltransferase 1 (Homo sapiens) (UniProt P26358). The assay is described as follows: Inhibition of human DNMT1 using AdoMet and poly dI-dC at 50 uM after 2 hrs by radioactive assay.
Assay [2] concerns U-937. Briefly: Cell cycle arrest in human U937 cells at 5 to 50 uM after 30 hrs by FACS analysis. Type of assay: functional, cell-based. For orientation: A flow cytometer gives signals particle by particle.
Assay [3] relates to U-937. Briefly: Induction of apoptosis in human U937 cells assessed as accumulation at pre-G1 phase after 30 hrs by FACS analysis. It is filed as functional, cell-based.

Calls of active or inactive are those of the source. The calls are words filed in the database; no cut-off is given here.

DNA (cytosine-5)-methyltransferase 1 (Homo sapiens), sequence (P26358 whole entry): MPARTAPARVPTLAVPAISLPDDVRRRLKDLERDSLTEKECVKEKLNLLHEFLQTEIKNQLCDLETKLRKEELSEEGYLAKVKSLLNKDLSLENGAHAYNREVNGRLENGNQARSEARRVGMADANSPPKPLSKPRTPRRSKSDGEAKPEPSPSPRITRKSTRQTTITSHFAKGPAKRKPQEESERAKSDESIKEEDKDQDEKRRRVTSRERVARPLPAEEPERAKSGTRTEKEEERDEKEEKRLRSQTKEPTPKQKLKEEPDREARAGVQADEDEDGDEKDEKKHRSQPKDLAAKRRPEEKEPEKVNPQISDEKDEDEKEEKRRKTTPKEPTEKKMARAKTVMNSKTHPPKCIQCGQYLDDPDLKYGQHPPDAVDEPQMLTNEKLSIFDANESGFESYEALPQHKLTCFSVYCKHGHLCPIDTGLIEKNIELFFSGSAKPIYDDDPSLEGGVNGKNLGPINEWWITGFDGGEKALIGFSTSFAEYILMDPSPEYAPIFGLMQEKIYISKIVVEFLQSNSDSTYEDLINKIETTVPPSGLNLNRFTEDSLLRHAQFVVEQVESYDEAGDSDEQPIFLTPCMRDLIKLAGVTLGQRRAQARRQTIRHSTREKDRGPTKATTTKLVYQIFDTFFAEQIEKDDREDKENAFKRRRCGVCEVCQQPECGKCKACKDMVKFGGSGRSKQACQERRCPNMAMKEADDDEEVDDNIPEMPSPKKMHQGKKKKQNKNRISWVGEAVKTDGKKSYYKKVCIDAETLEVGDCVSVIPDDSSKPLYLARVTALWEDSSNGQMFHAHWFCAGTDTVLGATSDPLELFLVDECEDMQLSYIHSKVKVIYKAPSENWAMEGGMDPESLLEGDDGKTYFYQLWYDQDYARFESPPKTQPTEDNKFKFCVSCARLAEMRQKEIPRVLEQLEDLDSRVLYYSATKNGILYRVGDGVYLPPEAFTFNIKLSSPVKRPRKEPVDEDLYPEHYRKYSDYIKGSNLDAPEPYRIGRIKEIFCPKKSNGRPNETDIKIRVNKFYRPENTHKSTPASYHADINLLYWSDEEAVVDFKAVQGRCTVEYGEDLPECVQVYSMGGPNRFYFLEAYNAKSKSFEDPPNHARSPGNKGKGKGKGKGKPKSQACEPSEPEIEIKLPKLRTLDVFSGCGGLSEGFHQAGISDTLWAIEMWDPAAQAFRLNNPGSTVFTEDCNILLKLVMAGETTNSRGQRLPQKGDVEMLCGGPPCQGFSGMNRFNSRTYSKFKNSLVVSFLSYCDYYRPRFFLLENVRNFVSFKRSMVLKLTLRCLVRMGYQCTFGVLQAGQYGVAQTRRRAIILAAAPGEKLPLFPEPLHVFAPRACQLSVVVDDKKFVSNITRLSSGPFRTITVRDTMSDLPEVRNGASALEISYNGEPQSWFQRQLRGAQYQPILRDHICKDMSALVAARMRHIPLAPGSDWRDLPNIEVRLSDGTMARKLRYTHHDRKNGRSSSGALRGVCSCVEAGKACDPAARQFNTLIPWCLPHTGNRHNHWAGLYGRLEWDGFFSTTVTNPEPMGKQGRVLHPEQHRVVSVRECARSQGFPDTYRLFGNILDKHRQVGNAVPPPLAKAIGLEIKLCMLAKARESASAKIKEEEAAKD

On to `O=C(O)[C@H](Cc1c[nH]c2ccccc12)N1C(=O)c2ccccc2C1=O`, for which the inhibition entry in assay [1] is “Active”.

Turning to `Cc1cc(Nc2ccc(NC(=O)c3ccc(Nc4ccnc5ccccc45)cc3)cc2)nc(N)n1`, the result in the assay with U-937 [2] was inactive. Moreover, the inhibition result in assay [1] was “Active”. The Activity result in the assay on U-937 [3] is “Dose-dependent effect”.
